In paper PMC8347148, “An Evaluation of Human Induced Pluripotent Stem Cells to Test for Cardiac Developmental Toxicity” (International Journal of Molecular Sciences, 2021):
≈ marks a conversion by molar mass, not a printed value. Where two headings read alike, the source gives them in different places.

Experiments:
hiPSC = experiment: hiPSC-EST biostatistical prediction model; design: species or system human; conditions: for hiPSC (day 25 cluster) Biostatistical Embryotoxicity Classification: EST prediction model with contractile ID50, hiPSC IC50 and hFF IC50; for hiPSC (day 10 qPCR) Biostatistical Embryotoxicity Classification: EST prediction model with d10 TBX5 ID50
Source text: The prediction model uses a series of equations to perform a linear discriminant analysis using determined IC50 and ID50 values determined from dose–response curves. […] Importantly, half-maximal concentrations found for 5-FU and atRA were decades lower than the maximum plasma concentration (Cmax) achieved during human exposure underscoring the strong potential of these two compounds to elicit embryotoxic outcomes in vivo.
To compare the efficacy of qPCR-based embryotoxicity classifications versus contractile assay-based classifications, the ID50 values generated from 5-FU and atRA TBX5 mRNA dose–response curves were compared against the ID50 values from the contractile assay curves in the EST biostatistical model.

mESCs = tested on: mESCs; design: method as in PMID 14761682, PMID 21720311; conditions: EST prediction model; cited from earlier work
[1] = tested on: differentiating hiPSCs (hiPSC-cardiomyocytes); experiment: hiPSC-EST cardiac viability assay (MTT); assay type: cell-based, human; conditions: for IC50: Homo sapiens, 600 h
Procedure: (§1) 5-flurorouracil (5-FU), all-trans retinoic acid (atRA), and penicillin G (PenG) were selected from a subset of chemicals used in the original EST validation study. 5-FU and atRA were selected as positive test compounds due to their established embryotoxic potential while PenG was used as a negative control. All chemicals were purchased from Sigma. Stock solutions were prepared in DMSO and filtered through a 0.2 micron Acrodisc® PSF Syringe Filter (Pall Corporation, Port Washington, NY, USA), aliquoted into sterile microcentrifuge tubes and stored at −20 °C until use. Test chemicals were serially diluted to final concentrations in differentiation media. Cardiogenic cultures were treated with designated chemicals (or solvent only) through day 25 of differentiation and hFF cultures were treated with each compound for a 25 day duration period. Compounds were replenished with each medium change.
(§2) A University of Kentucky smoking machine was used to produce smoke extract solutions from commercially available conventional Marlboro Red 100 brand cigarettes as previously described. The smoking machine took a 2.2 s puff of mainstream (MS) smoke every minute. Smoke solution concentrations were made in puff equivalents (PE), which are the number of cigarette puffs dissolved in 1 mL of medium. MS smoke solutions were produced by pulling 30 puffs of MS smoke through 10 mL of DMEM. Resulting 3 PE smoke extracts were filtered through a 0.2 micron Acrodisc® PSF Syringe Filter (Pall Corporation, Port Washington, NY, USA), aliquoted into sterile microcentrifuge tubes, and stored at −80 °C until use. Serial dilutions were performed in differentiation medium to reach desired final exposure concentrations. Cardiogenic cultures were treated with smoke solutions through 25 days of differentiation. Smoke solutions were replenished with each medium change.
(§3) A 10% (w/v) Camel Snus extract was prepared as previously described. Ten grams of Snus was added to 85 mL of DMEM and allowed to incubate at 37 °C for 2 h. This initial extract solution was centrifuged for 10 min at 4500× g. Supernatant from the first round of centrifugation was then centrifuged again at 13,000× g for 1 h. The resulting supernatant was collected and pH adjusted to 7.4. 15 mL of FBS was added to the pH-adjusted Snus extract to produce a 10% stock solution of Snus tobacco extract (STE). The stock solution was then sterile-filtered with a 0.22 μm vacuum filter system. STE was aliquoted into sterile microcentrifuge tubes and stored at −80 °C until use. Serial dilutions were performed in differentiation medium to reach desired final exposure concentrations. Cardiogenic cultures were treated with STE through 25 days of differentiation. STE was replenished with each medium change.
Cardiomyocyte survival following concurrent exposure to each compound was evaluated by 3-[4,5-dimethylthiazol-2-yl]-2,5-diphenylterazolium bromide (MTT) assay from three independent differentiations each carried out in technical quintuplicate as previously described. On day 25 of differentiation, cells were incubated with MTT (5 mg/mL) for 2 h at 37 °C. MTT supernatant was removed and replaced with a desorb solution of 0.7% SDS in 2-propanol. The absorbance of the solution was measured at 570 nm in an iMark™ microplate reader (Bio-Rad) with 655 nm as a reference wavelength. Here, mitochondrial dehydrogenase activity on the MTT in solution is directly proportional to a blue-purple product that is detected at 570 nm.
Half-maximal inhibitory compound doses of differentiation (ID50) and cytotoxicity (IC50) were determined from concentration-response curves using GraphPad Prism.

[2] = maximum plasma concentration, human exposure; cited from earlier work
[3] = tested on: RIV9 hiPSC-derived cardiomyocytes; experiment: hiPSC-EST cardiac contractile assay (count of contracting cardiomyocyte clusters); assay type: cell-based, human; conditions: for doses with reduced contractile activity / incidence: Figure 3; for hiPSC ID50: day 25, 50% inhibition of functional (contracting) cardiomyocytes vs control
Procedure: The hiPSC cell line RIV9 was obtained from the Stem Cell Core at the University of California, Riverside. hiPSCs were seeded on Matrigel (Corning, Glendale, AZ, USA)-coated tissue culture plates and maintained in a pluripotent state in mTeSR® medium (Stem Cell Technologies, Seattle, WA, USA). Cells were cultured under a humidified atmosphere of 5% CO2 at 37 °C and passaged for maintenance or to seed for experiments approximately every 5 days as previously described.
After cells reached 70% confluency (designated day 0), the medium was changed to control differentiation medium supplemented with 0.06 mg/mL ascorbic acid (Sigma-Aldrich, St. Louis, MO, USA) to induce cardiac differentiation. Control differentiation medium was comprised of Dulbecco’s modified Eagle’s medium (DMEM with 4.5 g/L glucose, L-glutamine and sodium pyruvate; Corning) supplemented with 18% FBS (PAA), 0.8% penicillin/streptomycin (10,000 units/10,000 units, Gibco, ThermoFisher Scientific, Grand Island, NY, USA), 0.12% non-essential amino acids (NEAA; Gibco), and 0.1 mM β-mercaptoethanol (Gibco). Cultures were cultured in differentiation media for 25 days, starting from day 0.
as §1, §2
as §3, with “change. […]” for “change.”

[4] = read-out: hiPSC IC50, day 25, MTT, 50% inhibition of viable cells vs control
[5] = day 25, MTT, 50% inhibition of viable cells vs control

Structure (SMILES)	hiPSC (day 25 cluster) Biostatistical Embryotoxicity Classification (hiPSC)	hiPSC (day 10 qPCR) Biostatistical Embryotoxicity Classification (hiPSC)	mESC Biostatistical Embryotoxicity Classification (mESCs)	IC50 ([1]; day 25, MTT, 50% inhibition of viable cells vs control, read-out: hiPSC IC50) [µg/mL]	Cmax [2]	increase in contractile cluster incidence ([3]; 1 × 10^−8 μg/mL) [fold]	concentrations at which cells failed to form contractile clusters ([3]; Figure 2)	doses with reduced contractile activity / incidence [3]	hiPSC ID50 [3] [ng/mL]	IC50 [1, 4] [µg/mL]	concentrations with reductions in hiPSC cell viability ([1]; MTT, Figure 4A)	hiPSC IC50 [1, 5] [µg/mL]	concentrations that negatively impacted the formation of contractile structures ([3]; by day 20, Figure 2)	hiPSC (day 25 cluster) Biostatistical Embryotoxicity Classification (hiPSC; listed as PenG)	hiPSC (day 10 qPCR) Biostatistical Embryotoxicity Classification (hiPSC; listed as PenG)	effect on hiPSC cell viability ([1]; tested concentration range)	effect on formation of contractile structures [3]
CC1=C(/C=C/C(C)=C/C=C/C(C)=C/C(=O)O)C(C)(C)CCC1 [All-Trans Retinoic Acid, all-trans retinoic acid]	Strongly embryotoxic	Strongly embryotoxic	Strongly embryotoxic	3.64 (≈ 12.1 µM)	0.155–0.294 [13] μg/mL	~2	above 1 × 10^−3 μg/mL	above 1 × 10^−8 μg/mL	0.000933	–	–	–	–	–	–	–	–
O=c1[nH]cc(F)c(=O)[nH]1 [5-Fluorouracil, 5-fluorouracil]	Strongly embryotoxic	Strongly embryotoxic	Strongly embryotoxic	–	0.94 [13] μg/mL	–	–	–	0.00229	4.7e-05 (≈ 0.000361 µM)	above 1 × 10^−6 μg/mL	4.726e-05	above 1 × 10^−6 μg/mL	–	–	–	–
CC1(C)S[C@@H]2[C@H](NC(=O)Cc3ccccc3)C(=O)N2[C@H]1C(=O)O [Penicillin G, penicillin G]	Not embryotoxic	Not embryotoxic	Not embryotoxic	–	134.6 [12] μg/mL	–	–	> 700 µg/mL	739900	< 1000	–	>1000	–	non-embryotoxic	non-embryotoxic	did not find any reduced cell survival	did not inhibit the formation of contractile structures
